Our source for the EC50 values is patent US20200131142A1, “FARNESOID X RECEPTOR AGONISTS AND USES THEREOF” (Metacrine, Inc., priority 2017, published 2020).

The target of the test is T1, hFXR (Homo sapiens, UniProt Q96RI1).
T1 construct: expressed in transfected cells; host or cells: CV-1 cells
T1 sequence (Q96RI1 1-486): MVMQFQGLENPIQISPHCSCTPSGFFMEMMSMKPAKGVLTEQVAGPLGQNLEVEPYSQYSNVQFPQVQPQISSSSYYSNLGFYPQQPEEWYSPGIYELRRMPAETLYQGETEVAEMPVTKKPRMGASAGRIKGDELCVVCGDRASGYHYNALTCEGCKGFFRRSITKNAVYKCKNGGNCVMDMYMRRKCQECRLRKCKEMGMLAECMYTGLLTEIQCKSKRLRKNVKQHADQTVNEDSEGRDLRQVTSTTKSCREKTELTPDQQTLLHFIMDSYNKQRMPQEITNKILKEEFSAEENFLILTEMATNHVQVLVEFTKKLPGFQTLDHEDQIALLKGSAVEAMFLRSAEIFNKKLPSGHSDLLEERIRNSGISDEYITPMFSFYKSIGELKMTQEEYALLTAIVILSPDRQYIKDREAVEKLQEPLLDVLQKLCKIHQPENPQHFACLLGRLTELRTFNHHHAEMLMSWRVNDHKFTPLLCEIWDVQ
T1 sequence (P19793 1-462 partner): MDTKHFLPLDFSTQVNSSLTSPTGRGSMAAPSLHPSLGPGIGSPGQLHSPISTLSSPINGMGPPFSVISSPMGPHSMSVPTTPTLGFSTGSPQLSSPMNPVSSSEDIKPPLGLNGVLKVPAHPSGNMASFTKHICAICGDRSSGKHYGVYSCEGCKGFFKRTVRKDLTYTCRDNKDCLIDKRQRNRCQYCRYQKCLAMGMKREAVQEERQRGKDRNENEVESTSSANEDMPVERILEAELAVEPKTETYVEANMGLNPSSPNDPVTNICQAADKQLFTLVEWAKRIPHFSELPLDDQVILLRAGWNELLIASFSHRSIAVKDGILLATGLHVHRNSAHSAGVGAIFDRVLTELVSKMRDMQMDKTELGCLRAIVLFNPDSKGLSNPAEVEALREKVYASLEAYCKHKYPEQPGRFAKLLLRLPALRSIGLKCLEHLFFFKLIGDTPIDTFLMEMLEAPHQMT
Put plainly: In Vitro FXR Assay (TK): hFXR/hRXR TK-ECRE-luc reporter in transfected CV-1 cells. Type of test: cell-based. Conditions: 18 hrs incubation, luminescence, compounds with maximum efficacy <25% of the Fexarmine control classified as '+'. Here is the method: Example B-1: In Vitro FXR Assay (TK)
CV-1 cells were seeded at a density of 2,000,000 cells in a T175 flask with DMEM+10% charcoal double-stripped FBS and incubated at 37° C. in 5% CO2 for 18 h (O/N).
After 18 h of incubation, the medium in the T175 flask was changed with fresh DMEM+10% charcoal super-stripped serum. In a polypropylene tube, 2500 μL OptiMEM (Life Technologies, Cat #31985-062) was combined with expression plasmids for hFXR, hRXR, TK-ECRE-luc and pCMX-YFP. The tube was then briefly vortexed and incubated at room temperature for 5 minutes. Transfection reagent (X-tremeGENE HP from Roche, Cat #06 366 236 001) was added to the OptiMEM/plasmid mixture vortexed and incubated at room temperature for 20 minutes. Following incubation, the transfection reagent/DNA mixture complex was added to cells in the T175 flask and the cells were incubated at 37° C. in 5% CO2 for 18 h (O/N).
Compounds were serially diluted in DMSO and added to transfected CV-1 cells. The cells were then incubated for 18 hrs. The next day cells were lysed and examined for luminescence.

For `COc1ccc([C@H]2CC[C@H](CN(c3cccc(-c4cnc(C(C)(C)C)s4)c3)C(=O)[C@H]3CC[C@H](O)CC3)CC2)cc1C` [Compound 7.07, trans-N-(3-(2-(tert-Butyl)thiazol-5-yl)phenyl)-4-hydroxy-N-((trans-4-(4-methoxy-3-methylphenyl)cyclohexyl)methyl) cyclohexanecarboxamide], the EC50 was at most 250 nM.

With `COc1ccc([C@H]2CC[C@H](CN(c3cccc(CNc4nccs4)c3)C(=O)[C@H]3CC[C@H](O)CC3)CC2)cc1C` [Compound 14, trans-4-Hydroxy-N-((trans-4-(4-methoxy-3-methylphenyl)cyclohexyl)methyl)-N-(3-((thiazol-2-ylamino)methyl)phenyl)cyclohexanecarboxamide], the EC50 was at least 1000 nM. The same measure for `COc1ccc(C23CCC(CN(c4cc(-c5cnc(C6CC6)s5)ccn4)C(=O)[C@H]4CC[C@H](O)CC4)(CC2)CC3)cc1C` [Compound 6.05, trans-N-(4-(2-Cyclopropylthiazol-5-yl)pyridin-2-yl)-4-hydroxy-N-((4-(4-methoxy-3-methylphenyl)bicyclo[2.2.2]octan-1-yl)methyl)cyclohexanecarboxamide]: at most 250 nM; for `COc1ncc(-c2cccc(N(C[C@H]3CC[C@H](c4ccc5c(c4)c(F)nn5C)CC3)C(=O)[C@H]3CC[C@H](O)CC3)c2)s1` [Compound 9.10, trans-N-((trans-4-(3-Fluoro-1-methyl-1H-indazol-5-yl)cyclohexyl)methyl)-4-hydroxy-N-(3-(2-methoxythiazol-5-yl)phenyl)cyclohexanecarboxamide]: at most 250 nM; for `COc1ncc(-c2cccc(N(C[C@H]3CC[C@H](c4ccc(OC)c(C)c4)CC3)C(=O)[C@H]3CC[C@H](C)CC3)c2)s1` [Compound 9.31, trans-N-((trans-4-(4-Methoxy-3-methylphenyl)cyclohexyl)methyl)-N-(3-(2-methoxythiazol-5-yl)phenyl)-4-methylcyclohexanecarboxamide]: at most 250 nM.

For `CN(C)c1ccc(C23CCC(CN(c4cccc(-c5cnc(C6CC6)s5)c4)C(=O)[C@H]4CC[C@H](O)CC4)(CC2)CC3)cn1` [Compound 9.13, trans-N-(3-(2-Cyclopropylthiazol-5-yl)phenyl)-N-((4-(6-(dimethylamino)pyridin-3-yl)bicyclo[2.2.2]octan-1-yl)methyl)-4-hydroxycyclohexanecarboxamide], the EC50 is at most 250 nM. On to `COc1ccc([C@H]2CC[C@H](CN(c3cccc(-c4cnc(C5CC5)s4)c3)C(=O)[C@H]3CC[C@H](N(C)C)CC3)CC2)cc1C` [Compound 13, trans-N-(3-(2-Cyclopropylthiazol-5-yl)phenyl)-4-(dimethylamino)-N-((trans-4-(4-methoxy-3-methylphenyl)cyclohexyl)methyl) cyclohexanecarboxamide], for which the concentration for a half-maximal effect (EC50) was at least 1000 nM. With `COc1ccc([C@H]2CC[C@H](CN(c3cc(-c4cnc(C(C)C)s4)ccn3)C(=O)[C@H]3CC[C@H](O)CC3)CC2)nc1C` [Compound 9.29, trans-4-Hydroxy-N-(4-(2-isopropylthiazol-5-yl)pyridin-2-yl)-N-((trans-4-(5-methoxy-6-methylpyridin-2-yl)cyclohexyl)methyl)cyclohexanecarboxamide], the EC50 was at most 250 nM.

`COc1ncc(-c2cccc(N(C[C@H]3CC[C@H](c4ccc(OC)c(C)n4)CC3)C(=O)[C@H]3CC[C@H](O)CC3)c2)s1` [Compound 9.02, trans-4-Hydroxy-N-((trans-4-(5-methoxy-6-methylpyridin-2-yl)cyclohexyl)methyl)-N-(3-(2-methoxythiazol-5-yl)phenyl)cyclohexanecarboxamide] came in with an EC50 of at most 250 nM.

Take `CN(C)c1ccc([C@H]2CC[C@H](CN(c3cccc(-c4cnc(C5CC5)s4)c3)C(=O)[C@H]3CC[C@H](O)CC3)CC2)cn1` [Compound 9.07, trans-N-(3-(2-Cyclopropylthiazol-5-yl)phenyl)-N-((trans-4-(6-(dimethylamino)pyridin-3-yl)cyclohexyl)methyl)-4-hydroxycyclohexanecarboxamide]: the EC50 was at most 250 nM. In turn, `COc1ccc(C23CCC(CN(c4cccc(C#Cc5nccs5)c4)C(=O)[C@H]4CC[C@H](O)CC4)(CC2)CC3)cc1C` [Compound 8.04, trans-4-Hydroxy-N-((4-(4-methoxy-3-methylphenyl)bicyclo[2.2.2]octan-1-yl)methyl)-N-(3-(thiazol-2-ylethynyl)phenyl)cyclohexanecarboxamide] had an EC50 of at most 250 nM.

Compound `COc1ccc([C@H]2CC[C@H](CN(c3cccc(C#Cc4nccs4)c3)C(=O)[C@H]3CC[C@H](O)CC3)CC2)cc1C` [Compound 18, trans-4-Hydroxy-N-((trans-4-(4-methoxy-3-methylphenyl)cyclohexyl)methyl)-N-(3-(thiazol-2-ylethynyl)phenyl)cyclohexanecarboxamide] returned a concentration for a half-maximal effect (EC50) of at most 250 nM. `COC(=O)c1ncc(-c2cccc(N(C[C@H]3CC[C@H](c4ccc(OC)c(C)c4)CC3)C(=O)[C@H]3CC[C@H](O)CC3)c2)s1` [Compound 7.27, Methyl 5-(3-(trans-4-hydroxy-N-((trans-4-(4-methoxy-3-methylphenyl)cyclohexyl)methyl)cyclohexanecarboxamido)phenyl)thiazole-2-carboxylate]: the concentration for a half-maximal effect (EC50) lay in the range of 250 to 1000 nM. In turn, `COc1ccc([C@H]2CC[C@H](CN(c3cccc(-c4cnc(C#N)s4)c3)C(=O)[C@H]3CC[C@H](O)CC3)CC2)cc1C` [Compound 7.26, trans-N-(3-(2-Cyanothiazol-5-yl)phenyl)-4-hydroxy-N-((trans-4-(4-methoxy-3-methylphenyl)cyclohexyl)methyl) cyclohexanecarboxamide] registered an EC50 of 250 to 1000 nM.

With `CC#Cc1ncc(-c2cccc(N(C[C@H]3CC[C@H](c4ccc(OC)c(C)c4)CC3)C(=O)[C@H]3CC[C@H](O)CC3)c2)s1` [Compound 7.21, trans-4-Hydroxy-N-((trans-4-(4-methoxy-3-methylphenyl)cyclohexyl)methyl)-N-(3-(2-(prop-1-yn-1-yl)thiazol-5-yl)phenyl)cyclohexanecarboxamide], the concentration for a half-maximal effect (EC50) is at most 250 nM.

Take `COc1ncc(-c2cccc(N(CC3CCC(c4ccc(OC)c(C)c4)CC3C)C(=O)[C@H]3CC[C@H](O)CC3)c2)s1` (stereo partly drawn) [Compound 12, trans-4-Hydroxy-N-((4-(4-methoxy-3-methylphenyl)-2-methylcyclohexyl)methyl)-N-(3-(2-methoxythiazol-5-yl)phenyl)cyclohexanecarboxamide]: the EC50 was at most 250 nM. The same measure for `COc1ccc([C@H]2CC[C@H](CN(c3cccc(COc4nccs4)c3)C(=O)[C@H]3CC[C@H](O)CC3)CC2)cc1C` [Compound 17, trans-4-Hydroxy-N-((trans-4-(4-methoxy-3-methylphenyl)cyclohexyl)methyl)-N-(3-((thiazol-2-yloxy)methyl)phenyl)cyclohexanecarboxamide]: at most 250 nM; for `COc1ccc([C@H]2CC[C@H](CN(c3cccc(-c4cnc(OC(F)F)s4)c3)C(=O)[C@H]3CC[C@H](O)CC3)CC2)cc1C` [Compound 9.01, trans-N-(3-(2-(Difluoromethoxy)thiazol-5-yl)phenyl)-4-hydroxy-N-((trans-4-(4-methoxy-3-methylphenyl)cyclohexyl)methyl) cyclohexanecarboxamide]: at most 250 nM. Consider `COc1ccc([C@H]2CC[C@H](CN(c3cccc(-c4cnc(S(C)(=O)=O)s4)c3)C(=O)[C@H]3CC[C@H](O)CC3)CC2)cc1C` [Compound 7.12, trans-4-Hydroxy-N-((trans-4-(4-methoxy-3-methtylphenyl)cyclohexyl)methyl)-N-(3-(2-(methylsulfonyl)thiazol-5-yl)phenyl)cyclohexanecarboxamide], for which the EC50 lay within 250 to 1000 nM. Regarding `COc1ccc([C@H]2CC[C@H](CN(c3cccc(-c4cnc(C5CCCCC5)s4)c3)C(=O)[C@H]3CC[C@H](O)CC3)CC2)cc1C` [Compound 7.09, trans-N-(3-(2-Cyclohexylthiazol-5-yl)phenyl)-4-hydroxy-N-((trans-4-(4-methoxy-3-methylphenyl)cyclohexyl)methyl) cyclohexanecarboxamide], the concentration giving a half-maximal response (EC50) lay within 250 to 1000 nM.
